# Where “and” joins values, the source holds several entries; their conditions need not be identical. Equal entries are not always repeated.
# Assays:
# [1] = tested on: mammal adenocarcinoma MC2111; test: Antitumor effect at animals with solid form of mammal adenocarcinoma MC2111 (Example 9); format: in vivo, mice DBA1; conditions: for Tumor mass (%) of control / Tumor mass, Arithm. mean: 5th-13 day, tumor size 14th day, mass from regression
# [2] = tested on: leucaemia L1210; test: Antitumor effect at animals with leucaemia L1210, single administration (Example 4); format: in vivo, mice DBA2; conditions: mouse, in vivo
# [3] = tested on: leucaemia L1210; test: Antitumor effect at animals with leucaemia L1210, continual regimen (Example 7); format: in vivo, mice DBA2; conditions: for Survival (in % of control) / Survival time, Geom. mean: 1th-9th day
# [4] = tested on: leucaemia L1210; test: Antitumor effect at animals with leucaemia L1210, intermitent administration 3x (Example 5); format: in vivo, mice DBA2; conditions: for Survival (in % of control) / Survival time, Geom. mean: 1st, 5th and 9th day
# [5] = tested on: leucaemia L1210; test: Antitumor effect at animals with leucaemia L1210, continual versus intermitent regimen (Example 6); format: in vivo, mice DBA2
# [6] = tested on: Gardner lymphosarcoma; test: Antitumor effect at animals with solid form of Gardner lymphosarcoma (Example 8); format: in vivo, mice C3H; conditions: 5th day, tumors weighed 14th day
# [7] = tested on: ascitic form of Ehrlich tumor (ATE); test: Antitumor effect at animals with ascitic form of Ehrlich tumor (ATE) (Example 10); format: in vivo, mice ICR; conditions: for Survival (in % of control) / Survival time, Geom. mean / Tumor mass (%) of control / Tumor mass, Arithm. mean: 1st-9th day; for Tumor mass (%) of control / Tumor mass, Arithm. mean: dissection 10th day
# [8] = tested on: ascitic form of Ehrlich tumor (ATE); test: Antitumor effect at animals with ascitic form of Ehrlich tumor (ATE) (Example 11);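 as to all read-outs here: half of each dose group killed on day 10, tumor mass taken as animal mass lost on ascites aspiration, ascitocrit by microhematocrit centrifuge, rest followed daily for survival versus reference group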; conditions: for Survival (in % of control) / Survival time, Geom. mean / Total ascitocrit (%) of control / Total ascitocrit (mass of cell fraction of a tumor), Arithm. mean / Tumor mass (%) of control / Tumor mass, Arithm. mean: 1th-9th day; for Total ascitocrit (%) of control / Total ascitocrit (mass of cell fraction of a tumor), Arithm. mean / Tumor mass (%) of control / Tumor mass, Arithm. mean: dissection 10th day
# Description: After termination of application, one half of animals in each dosage group was destroyed at 10th day after inoculation in ether narcosis, the ascits were sucked out after laparotomy and the mass of a tumor at each of the animals was determined from the difference of mass before and after sucking out the ascit. Ascitocrit in ascitic liquor of single animals was determined on microhematocrit centrifuge in heparinized capillary tubes of 75 mm length. The value of “total ascitocrit”corresponding to a mass of cells in ascitic liquor has been determined from percentage of ascitocrit and mass of the tumor. Remaining animals were left for monitoring the survival time. In these animals, the survival time was monitored on daily basis. The dependence of the survival time value on the applied dose was evaluated in comparison with the reference group.
# The single estimated time points as biological responses were evaluated by a test of equivalence of two mean values (Student's t-test). Geometric mean was calculated from single values of survival time, arithmetic means were calculated from single values of tumor mass and total ascitocrit. Difference between mean values was evaluated by a test of equivalence of two mean values (Student's t-test) under presumption of normal probability distribution of mass values as well as of total ascitocrit values and of logarithmic/normal distribution of temporal values, all under presumption of possible unknown disseminations. Those diferences in mean values, whose values of a test criterium exceeded the critical value at the 5% and 1% significance level were evaluated as statistically significant and highly statistically significant, respectively.
# The optimum dosage has been calculated from values of survival time according to the proportional risk model of Cox (Carter et al., 1982). Parameters of Weinbull distribution and logarithmic transformation of introductory data were used for estimation of a basic and modified survival function from experimental data.
# [9] = 9 mg/kg/day p.o. 3x, 1,5,9th day (lowest dose group)
# [10] = 12 mg/kg/day p.o. 9x, 1-9th day
# [11] = 18 mg/kg/day p.o. 3x, 1,5,9th day
# [12] = 36 mg/kg/day p.o. 3x, 1,5,9th day
smiles,measurement,setting,value
"CC(=O)[O-].CC(=O)[O-].N.NC12CC3CC(CC(C3)C1)C2.[Cl-].[Cl-].[Pt+4] [LA-12, Af-bis (Acetato)-b-(1-Adamantylamine)-c-ammin-de-dichloroplatinum (IV) Complex]",Tumor mass (%) of control,[1]; 3 mg/kg/day p.o. 9x,86%
same,"Tumor mass, Arithm. mean",[1]; 3 mg/kg/day p.o. 9x,4.02 g
same,Tumor mass (%) of control,[1]; 6 mg/kg/day p.o. 9x,80%
same,"Tumor mass, Arithm. mean",[1]; 6 mg/kg/day p.o. 9x,3.73 g
same,Tumor mass (%) of control,[1]; 12 mg/kg/day p.o. 9x,87%
same,"Tumor mass, Arithm. mean",[1]; 12 mg/kg/day p.o. 9x,4.05 g
same,Survival (in % of control),"[1]; mouse, in vivo",116% and 117%
same,"Survival time, Geom. mean","[1]; mouse, in vivo",25.1 days and 25.3 days and 27.7 days
same,"Evaluation of antitumor effect, in words","[1]; p.o.×9 12, 6, 3 mg/kg/day, Platidiam 8 and 4 mg/kg s.c. once",antitumor effective
same,Increase of mean value of survival time in comparison with the untreated control group,[2],55%
same,Survival (in % of control),[3]; 3 mg/kg/day p.o. 9x,198%
same,"Survival time, Geom. mean",[3]; 3 mg/kg/day p.o. 9x,44.6 days
same,Survival (in % of control),[3]; 6 mg/kg/day p.o. 9x,172%
same,"Survival time, Geom. mean",[3]; 6 mg/kg/day p.o. 9x,38.8 days
same,Survival (in % of control),[3]; 12 mg/kg/day p.o. 9x,210%
same,"Survival time, Geom. mean",[3]; 12 mg/kg/day p.o. 9x,47.2 days
same,"Evaluation of antitumor effect (survival time versus control), in words","[3]; in the dosages used, p.o.×9",antitumor effective
same,Increase of survival time value in comparison with the control group,"[3]; in the dosages used, p.o.×9",130%
same,Survival (in % of control),[4]; 2 mg/kg/day p.o. 3x,>121%
same,"Survival time, Geom. mean",[4]; 2 mg/kg/day p.o. 3x,19.0 days
same,Survival (in % of control),[4]; 4 mg/kg/day p.o. 3x,147%
same,"Survival time, Geom. mean",[4]; 4 mg/kg/day p.o. 3x,23.0 days
same,Survival (in % of control),"[4]; 4 mg/kg/day p.o. 3x, listed as LA-] 2",148%
same,Survival (in % of control),[4]; 8 mg/kg/day p.o. 3x,118%
same,"Survival time, Geom. mean",[4]; 8 mg/kg/day p.o. 3x,18.5 days
same,Optimum dose as calculated according to Carter,[4]; intermitent oral administration 3x,4.55 mg/kg/day p.o.×3
same,Survival (in % of control),"[5]; 3 mg/kg/day p.o. 9x, 1-9th day",96%
same,"Survival time, Geom. mean","[5]; 3 mg/kg/day p.o. 9x, 1-9th day",11.1 days
same,Increase of survival time value in comparison with the control group,[5]; 6 mg/kg p.o.×9,130%
same,Survival (in % of control),"[5]; 6 mg/kg/day p.o. 9x, 1-9th day",230%
same,"Survival time, Geom. mean","[5]; 6 mg/kg/day p.o. 9x, 1-9th day",16.6 days
same,Survival (in % of control),[5]; [9],115%
same,"Survival time, Geom. mean",[5]; [9],13.3 days
same,Survival (in % of control),[5]; [10],118%
same,"Survival time, Geom. mean",[5]; [10],13.6 days
same,Survival (in % of control),[5]; [11],158%
same,"Survival time, Geom. mean",[5]; [11],18.3 days
same,Survival (in % of control),[5]; [12],137%
same,"Survival time, Geom. mean",[5]; [12],15.9 days
same,"Evaluation of antitumor effect (survival time versus control), in words","[5]; LA-12 6 mg/kg p.o.×9, Platidiam 8 and 4 mg/kg s.c.×1, LA-2 any of the dosage groups",antitumor effective
same,Tumor mass (%) of control,[6]; 2 mg/kg p.o. 1x,80%
same,"Tumor mass, Arithm. mean",[6]; 2 mg/kg p.o. 1x,5.02 g
same,Tumor mass (%) of control,[6]; 8 mg/kg p.o. 1x,88%
same,"Tumor mass, Arithm. mean",[6]; 8 mg/kg p.o. 1x,5.46 g
same,Tumor mass (%) of control,[6]; 32 mg/kg p.o. 1x,77%
same,"Tumor mass, Arithm. mean",[6]; 32 mg/kg p.o. 1x,4.80 g
same,Survival (in % of control),[7]; 3 mg/kg/day p.o. 9x,157%
same,"Survival time, Geom. mean",[7]; 3 mg/kg/day p.o. 9x,18.0 days
same,Tumor mass (%) of control,[7]; 3 mg/kg/day p.o. 9x,104%
same,"Tumor mass, Arithm. mean",[7]; 3 mg/kg/day p.o. 9x,2.76 g
same,Survival (in % of control),[7]; 6 mg/kg/day p.o. 9x,219%
same,"Survival time, Geom. mean",[7]; 6 mg/kg/day p.o. 9x,25.1 days
same,Tumor mass (%) of control,[7]; 6 mg/kg/day p.o. 9x,100%
same,"Tumor mass, Arithm. mean",[7]; 6 mg/kg/day p.o. 9x,2.66 g
same,Survival (in % of control),[7]; 12 mg/kg/day p.o. 9x,135%
same,"Survival time, Geom. mean",[7]; 12 mg/kg/day p.o. 9x,15.5 days
same,Tumor mass (%) of control,[7]; 12 mg/kg/day p.o. 9x,84%
same,"Tumor mass, Arithm. mean",[7]; 12 mg/kg/day p.o. 9x,2.23 g
same,"Significance of mean survival time increase in comparison with untreated control (p≦0.01), in words",[7]; Tab. 7-2,atatistically highly significant
same,Survival (in % of control),[8]; 3 mg/kg/day p.o. 9x,143%
same,"Survival time, Geom. mean",[8]; 3 mg/kg/day p.o. 9x,12.7 days
same,Total ascitocrit (%) of control,[8]; 3 mg/kg/day p.o. 9x,100%
same,"Total ascitocrit (mass of cell fraction of a tumor), Arithm. mean",[8]; 3 mg/kg/day p.o. 9x,0.68 g
same,Tumor mass (%) of control,[8]; 3 mg/kg/day p.o. 9x,110%
same,"Tumor mass, Arithm. mean",[8]; 3 mg/kg/day p.o. 9x,4.32 g
same,Survival (in % of control),[8]; 6 mg/kg/day p.o. 9x,153%
same,"Survival time, Geom. mean",[8]; 6 mg/kg/day p.o. 9x,13.6 days
same,Total ascitocrit (%) of control,[8]; 6 mg/kg/day p.o. 9x,99%
same,"Total ascitocrit (mass of cell fraction of a tumor), Arithm. mean",[8]; 6 mg/kg/day p.o. 9x,0.68 g
same,Tumor mass (%) of control,[8]; 6 mg/kg/day p.o. 9x,78%
same,"Tumor mass, Arithm. mean",[8]; 6 mg/kg/day p.o. 9x,3.07 g
same,Survival (in % of control),[8]; 12 mg/kg/day p.o. 9x,134%
same,"Survival time, Geom. mean",[8]; 12 mg/kg/day p.o. 9x,11.9 days
same,Total ascitocrit (%) of control,[8]; 12 mg/kg/day p.o. 9x,64%
same,"Total ascitocrit (mass of cell fraction of a tumor), Arithm. mean",[8]; 12 mg/kg/day p.o. 9x,0.44 g
same,Tumor mass (%) of control,[8]; 12 mg/kg/day p.o. 9x,47%
same,"Tumor mass, Arithm. mean",[8]; 12 mg/kg/day p.o. 9x,1.86 g
same,"Evaluation of antitumor effect (survival time versus control), in words","[8]; p.o.×9, Platidiam 8 and 4 mg/kg s.c.×1, Tab. 8.1",didnot increase the survival time statistically significant

# Source: patent publication US6503943B1, “Platinum complex, its preparation and therapeutic application” (priority 1998, dated 2003)
